In US9617256B2 (priority 2007, dated 2017):
In brackets after ≈: the same amount, converted by molar mass.

Tests used:
AECO001 (ATCC25922) = assay: MIC broth microdilution, AECO001; type: cell-based, E. coli; settings: for MIC: Escherichia coli, ATCC25922, read-out: MIC AECO001
Outline: (§1)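 CLSI-guided microdilution: bacteria passaged overnight at 35° C. on Mueller-Hinton agar, tested in cation-adjusted broth at a final 3×10^5–7×10^5 CFU/mL across 2-fold drug dilutions, read after 18-24 h at 35° C.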

[1] = system: AECO063 (ATCC25922 bearing an acrAB mutation); assay: microbe, parasite or virus in culture; type: cell-based, E. coli; settings: for MIC: Escherichia coli, ATCC25922, read-out: MIC AECO063
Outline: as §1

[2] = system: APAE006 (strain of P. aeruginosa in which all efflux pumps are inactivated); assay: microbe, parasite or virus in culture; type: cell-based; settings: for MIC: Pseudomonas aeruginosa, read-out: MIC APAE006, P. aeruginosa, all efflux pumps inactivated
Outline: (§2)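 Growth inhibition was scored by CLSI broth microdilution using cation-adjusted Mueller-Hinton broth and a final inoculum between 3×10^5 and 7×10^5 CFU/mL, incubated 18-24 hours at 35° C.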

[3] = system: APAE006 in the presence of 8 micrograms per milliliter of polymyxin B nonapeptide; type: cell-based, P. aeruginosa; settings: in the presence of 8 micrograms per milliliter of polymyxin B nonapeptide
Outline: as §2

[4] = system: AABA1060 (clinical isolate of Acinetobacter baumannii); assay: MIC broth microdilution, AABA1060; type: cell-based; settings: for MIC: Acinetobacter baumannii, read-out: MIC AABA1060
Outline: as §1

APAE001 (ATCC27853) = assay: MIC broth microdilution, APAE001; type: cell-based, P. aeruginosa; settings: for MIC: Pseudomonas aeruginosa, ATCC27853, read-out: MIC APAE001, APAE001 is ATCC27853
Outline: as §1

[5] = system: ASAU001 (laboratory strain of S. aureus, ATCC29213); assay: MIC broth microdilution, ASAU001; type: cell-based; settings: for MIC: Staphylococcus aureus, ATCC29213, read-out: MIC ASAU001
Outline: as §1

AECO001 HSA AGP = assay: MIC broth microdilution, AECO001 HSA AGP; type: cell-based, E. coli; settings: for MIC: Escherichia coli
Experimental: Bacterial isolates were cultivated from −70° C. frozen stocks by overnight passages at 35° C. in ambient air on Mueller-Hinton agar (Beckton Dickinson, Franklin Lakes, N.J.). Clinical isolates tested were obtained from various geographically diverse hospitals in the US and abroad (Focus Diagnostics, Herndon, Va. and JMI, North Liberty, Iowa). Quality control strains were from the American Type Culture Collection (ATCC; Rockville, Md.). Additional primary panel strains were generated using standard molecular biology techniques.
Minimum Inhibitory Concentrations (MICs) were determined by the broth microdilution method in accordance with the Clinical and Laboratory Standards Institute (CLSI) guidelines. In brief, organism suspensions were adjusted to a 0.5 McFarland standard to yield a final inoculum between 3×10^5 and 7×10^5 colony-forming units (CFU)/mL. Drug dilutions and inocula were made in sterile, cation adjusted Mueller-Hinton Broth (Beckton Dickinson). An inoculum volume of 100 μL was added to wells containing 100 μL of broth with 2-fold serial dilutions of drug. All inoculated microdilution trays were incubated in ambient air at 35° C. for 18-24 hours. […] Performance of the assay was monitored by the use of laboratory quality-control strains and levofloxacin, a compound with a defined MIC spectrum, in accordance with CLSI guidelines.
*AECO001 is ATCC25922, AECO063 is ATCC25922 bearing an acrAB mutation, APAE001 is ATCC27853, APAE006 is a strain of P. aeruginosa in which all efflux pumps are inactivated, APAE006+PMBN indicates MICs with the indicated strain in the presence of 8 micrograms per milliliter of polymyxin B nonapeptide, AABA1060 is a clinical isolate of Acinetobacter baumannii, ASAU001 is a laboratory strain of S. aureus (ATCC29213).

| SMILES | MIC (AECO001 (ATCC25922)) [µg/mL] | MIC [1] [µg/mL] | MIC [2] [µg/mL] | MIC APAE006 + PMBN [3] | MIC [4] [µg/mL] | MIC (APAE001 (ATCC27853)) [µg/mL] | MIC [5] [µg/mL] | MIC (AECO001 HSA AGP) [µg/mL] | MIC AECO001 (AECO001 (ATCC25922); AECO001 is ATCC25922) | MIC AECO063 ([1]; ATCC25922 bearing an acrAB mutation) | MIC APAE006 ([2]; P. aeruginosa, all efflux pumps inactivated) | MIC AABA1060 ([4]; clinical isolate of Acinetobacter baumannii) | MIC APAE001 (APAE001 (ATCC27853); APAE001 is ATCC27853) | MIC ASAU001 ([5]; S. aureus ATCC29213) | MIC AECO001 HSA AGP (AECO001 HSA AGP) |
| --- | --- | --- | --- | --- | --- | --- | --- | --- | --- | --- | --- | --- | --- | --- | --- |
| O=C(N[C@H](C(=O)NO)C1CC1)c1ccc(C#Cc2ccc(CN3CCOCC3)cc2)cc1 [Example 68-6, N—((S)-cyclopropyl-hydroxycarbamoyl-methyl)-4-(4-morpholin-4-ylmethyl-phenylethynyl)-benzamide] | < 2 | < 2 | < 2 | A (MIC's of 2.0 μg/mL or less = A) | 16 to 64 (≈ 36.9 to 148 µM) | 2 to 16 (≈ 4.61 to 36.9 µM) | > 64 | 2 to 16 (≈ 4.61 to 36.9 µM) | – | – | – | – | – | – | – |
| C[C@@H](N)[C@H](NC(=O)c1ccc(C#CC#Cc2cncn2C)cc1)C(=O)NO [Example 88-1, N-((1S,2R)-2-Amino-1-hydroxycarbamoyl-propyl)-4-[4-(3-methyl-3H-imidazol-4-yl)-buta-1,3-diynyl]-benzamide] | < 2 | < 2 | < 2 | A (MIC's of 2.0 μg/mL or less = A) | 16 to 64 (≈ 43.8 to 175 µM) | 2 to 16 (≈ 5.47 to 43.8 µM) | 16 to 64 (≈ 43.8 to 175 µM) | 2 to 16 (≈ 5.47 to 43.8 µM) | – | – | – | – | – | – | – |
| C[C@@H](N)[C@H](NC(=O)c1ccc(/C=C/C#Cc2ccc(CN3CCS(=O)(=O)CC3)cc2)cc1)C(=O)NO [Example 113-8] | – | – | – | A (MIC's of 2.0 μg/mL or less = A) | – | – | – | – | A (MIC's of 2.0 μg/mL or less = A) | A (MIC's of 2.0 μg/mL or less = A) | A (MIC's of 2.0 μg/mL or less = A) | A (MIC's of 2.0 μg/mL or less = A) | B (MIC's of greater than 2.0 μg/mL to 16.0 μg/mL = B) | C (MIC's of greater than 16.0 μg/mL to 64.0 μg/mL = C) | B (MIC's of greater than 2.0 μg/mL to 16.0 μg/mL = B) |
| C[C@@H](N)[C@H](NC(=O)c1ccc(/C=C/C#Cc2ccc(CO)cc2)cc1)C(=O)NO [Example 112-1] | < 2 | < 2 | < 2 | A (MIC's of 2.0 μg/mL or less = A) | 2 to 16 (≈ 5.08 to 40.7 µM) | < 2 | > 64 | 16 to 64 (≈ 40.7 to 163 µM) | – | – | – | – | – | – | – |
| C[C@@H](N)[C@H](NC(=O)c1ccc(C#Cc2ccc(CN3CCN(C)CC3)cc2)cc1)C(=O)NO [Example 115-4] | 2 to 16 (≈ 4.45 to 35.6 µM) | < 2 | < 2 | A (MIC's of 2.0 μg/mL or less = A) | 16 to 64 (≈ 35.6 to 142 µM) | < 2 | > 64 | 16 to 64 (≈ 35.6 to 142 µM) | – | – | – | – | – | – | – |
| NC[C@H](NC(=O)c1ccc(C#C/C=C/c2ccc(CN3CCOCC3)cc2)cc1)C(=O)NO [Example 98-1, N—((S)-2-amino-1-hydroxycarbamoyl-ethyl)-4-[(E)-4-(4-morpholin-4-ylmethyl-phenyl)-but-3-en-1-ynyl]-benzamide] | < 2 | < 2 | < 2 | A (MIC's of 2.0 μg/mL or less = A) | 16 to 64 (≈ 35.7 to 143 µM) | < 2 | 16 to 64 (≈ 35.7 to 143 µM) | < 2 | – | – | – | – | – | – | – |
| CC(C)(N)C(NC(=O)c1ccc(C#Cc2ccc(CNCC(F)F)cc2)cc1)C(=O)NO (centres unmarked) [Example 137-7] | < 2 | < 2 | < 2 | A (MIC's of 2.0 μg/mL or less = A) | 2 to 16 (≈ 4.5 to 36 µM) | < 2 | 16 to 64 (≈ 36 to 144 µM) | 2 to 16 (≈ 4.5 to 36 µM) | – | – | – | – | – | – | – |
| CC(C)(O)[C@H](NC(=O)c1ccc(/C=C/C#Cc2ccc(CO)cc2)cc1)C(=O)NO [Example 112-5] | < 2 | < 2 | < 2 | A (MIC's of 2.0 μg/mL or less = A) | < 2 | < 2 | 16 to 64 (≈ 39.2 to 157 µM) | 2 to 16 (≈ 4.9 to 39.2 µM) | – | – | – | – | – | – | – |
| C[C@@H](N)[C@H](NC(=O)c1ccc(/C=C/C#Cc2cccc(Cl)c2)cc1)C(=O)NO [Example 114-4] | < 2 | < 2 | < 2 | A (MIC's of 2.0 μg/mL or less = A) | 2 to 16 (≈ 5.03 to 40.2 µM) | 2 to 16 (≈ 5.03 to 40.2 µM) | 2 to 16 (≈ 5.03 to 40.2 µM) | 2 to 16 (≈ 5.03 to 40.2 µM) | – | – | – | – | – | – | – |
| O=C(N[C@H](C(=O)NO)C1CC1)c1ccc(/C=C/C#Cc2ccc(CN3CCOCC3)cc2)cc1 [Example 110-9] | < 2 | < 2 | < 2 | A (MIC's of 2.0 μg/mL or less = A) | 2 to 16 (≈ 4.35 to 34.8 µM) | 2 to 16 (≈ 4.35 to 34.8 µM) | > 64 | 2 to 16 (≈ 4.35 to 34.8 µM) | – | – | – | – | – | – | – |
